Assay results: US9833426B2, “Agent for preventing deterioration in vascular endothelial function or improving vascular endothelial function” (KYOWA HAKKO BIO CO., LTD., priority 2012, dated 2017)

How the values were obtained:
[1] = system: normal human umbilical vein endothelial cells (HUVEC); test: Nitrite (NO2) concentration in HUVEC culture supernatant by HPLC (NO production); type: cell-based; conditions: 48-hour culture
Experimental: A normal human umbilical vein endothelial cells (HUVEC) line available from Clonetics (SanDiego, Calif., USA) was used with EGM-2 Bullet Kit medium containing 2% FBS (Takara Bio Inc.). The cells were cultured at 37° C. in a 5% CO2 incubator, and used for experiments after 4 to 6 passages. Citrulline and serine, which were manufactured by Kyowa Hakko Bio, were used.
A cell suspension (0.45 mL) with the adjusted initial cell density to 1×10^5 cells/mL was inoculated in a 24-well plate (IWAKI). After 24-hour culture, the medium was replaced with a medium containing L-citrulline (final concentration 0.3 mM: low-dose citrulline group, or final concentration 3 mM: high-dose citrulline group), L-serine (final concentration 0.3 mM: serine group), or a mixture thereof (citrulline final concentration 0.3 mM and serine final concentration 0.3 mM: low-dose citrulline+serine group, or citrulline final concentration 3 mM and serine final concentration 0.3 mM: high-dose citrulline+serine group). In a control group, a medium to which only a solvent (PBS) was added was used. After 48-hour culture, the culture broth ([…]) was centrifuged at 12,000 rpm for 10 minutes, and the concentration of nitrite (NO2), which is a stable NO metabolite, in the culture supernatant was determined by HPLC (ENO-20, EICOM).

[2] = system: mice in which chronic rheumatoid arthritis was induced; conditions: oral administration, mice with induced chronic rheumatoid arthritis; cited from earlier work
[3] = system: normal rats and spontaneously hypertensive rats (SHR); conditions: intravenous acute administration, transient; cited from earlier work

## NC(=O)NCCC[C@H](N)C(=O)O [citrulline, L-citrulline]
[1]; citrulline 0.3 mM alone (low-dose citrulline group)
  Effect on NO production alone: does not affect NO production alone
[1]; citrulline 3 mM alone (high-dose citrulline group)
  Effect on NO production alone: NO production was enhanced

## N[C@@H](CO)C(=O)O [serine, L-serine]
[2]
  Arthritis score: ameliorating the arthritis score
[3]
  Average blood pressure: decreased
  Peripheral vascular resistance: decreased in a transient manner
